# According to US20050131209A1, “Crystallized hnf4 gamma ligand binding domain polypeptide and screening methods employing same” (priority 2001, published 2005):
# Entries after “also recorded” stand apart in the source; their conditions may differ.
# What was measured:
# [1] = target: T1, HNF4α LBD / CBP (CREB-binding protein) (Homo sapiens, UniProt P41235); assay: FRET assay of CBP recruitment to HNF4α LBD; assay type: biochemical; details: cell-free FRET; for Kd: dose dependent, read-out: apparent binding constant (increase of CBP-HNF4 interaction); for effect on CBP recruitment / association between HNF4 and CBP: ligands incubated 15 minutes at 21° C.
# T1 construct: HNF4α amino acids 141465 and HNF4γ amino acids 102-408; biotin (chemical biotinylation); made in house; host or cells: E. coli
# T1 sequence (P41235 150-474 limits assumed): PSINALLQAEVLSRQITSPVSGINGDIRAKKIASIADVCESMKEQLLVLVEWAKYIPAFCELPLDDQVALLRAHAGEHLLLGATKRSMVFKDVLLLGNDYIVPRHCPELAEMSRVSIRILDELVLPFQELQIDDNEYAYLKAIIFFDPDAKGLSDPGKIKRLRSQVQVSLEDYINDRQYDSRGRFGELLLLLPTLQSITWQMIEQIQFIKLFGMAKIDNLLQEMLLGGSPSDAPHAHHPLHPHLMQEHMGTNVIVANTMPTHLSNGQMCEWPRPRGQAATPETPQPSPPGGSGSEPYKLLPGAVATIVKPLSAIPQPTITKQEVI
# Method: (§1) To confirm that fatty acids were functional HNF4 ligands, HNF4α and HNF4γ were tested for their ability to recruit the nuclear receptor co-activator CREB binding protein, a known activation partner (Wang et al., (1998) J. Biol. Chem. 273: 30847-50; Dell & Hadzopoulou-Cladaras, (1999) J. Biol. Chem. 274: 9013-21). A FRET (fluorescent resonance energy transfer) assay was employed using purified recombinant CREB-binding protein (CBP) and HNF4 LBD (Zhou et al., (1998) Mol. Endocrinol. 12: 1594-1604). Long-chain fatty acids (LCFA) with increasing carbon lengths from 12 to 18 carbon methylene units were tested for their ability to modulate the association between HNF4 and CBP in a dose dependent manner. […] Palmitic and stearic acids increased the allosteric interaction between CBP and HNF4, with apparent binding constants of 1 μM.
# (§2) The reported ligands for HNF4α are fatty acyl-CoA thioesters (Hertz et al., (1998) Nature (London) 392: 512-16), which are much larger than other nuclear receptor ligands (Bogan et al., (1998) Nat. Struct. Biol. 5: 679-81). […] Shorter fatty acyl-CoAs had no effect on CBP association.
# (§3) A cell-free fluorescent resonance energy transfer (FRET) assay was used to measure the association between the amino portion of CBP (CREB-binding protein) (residues 54-457) and the HNF4 LBD (HNF4α amino acids 141465 and HNF4γ amino acids 102-408) (Zhou et al., (1998) Mol. Endocrinol 12: 1594-1604). Proteins were expressed in E. coli, purified to homogeneity, and biotinylated. CBP, the fluorescence donor, was labeled with a europium chelate, and HNF4 LBD was labeled with the streptavidin-conjugated fluorophore allophycocyanin (Molecular Probes, Eugene, Oreg.). Labeled HNF4 LBD and CBP were incubated together with ligands for 15 minutes at 21° C. before assaying. A small basal level was observed, as depicted in FIG. 3.
# [2] = target: T2, HNF4γ LBD / CBP (CREB-binding protein) (Homo sapiens, UniProt Q14541); assay: FRET assay of CBP recruitment to HNF4γ LBD; assay type: biochemical; details: cell-free FRET; for Kd: dose dependent, read-out: apparent binding constant (increase of CBP-HNF4 interaction); for effect on CBP recruitment / association between HNF4 and CBP: ligands incubated 15 minutes at 21° C.
# T2 construct: HNF4γ amino acids 102-408; biotin (chemical biotinylation); made in house; host or cells: E. coli
# T2 sequence (Q14541 102-408): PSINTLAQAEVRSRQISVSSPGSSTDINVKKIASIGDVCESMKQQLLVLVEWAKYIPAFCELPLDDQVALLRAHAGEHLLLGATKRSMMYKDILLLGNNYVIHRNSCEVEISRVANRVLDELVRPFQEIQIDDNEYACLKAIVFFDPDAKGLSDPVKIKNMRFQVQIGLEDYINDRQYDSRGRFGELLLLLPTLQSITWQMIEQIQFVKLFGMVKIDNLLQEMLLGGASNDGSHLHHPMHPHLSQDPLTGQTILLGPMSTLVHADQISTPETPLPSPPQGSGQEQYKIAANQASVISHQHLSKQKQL
# Method: as §1, §2, §3
# HNF4γ LBD = target: T3, HNF4γ LBD (Homo sapiens, UniProt Q14541); assay: GC/MS identification of fatty acids bound to purified HNF4γ LBD (extract); assay type: binding; details: lipid extract of purified HNF4γ LBD, methyl esters, CI and EI
# T3 construct: HNF4γ amino acids 102-408; made in house; host or cells: E. coli BL21 (DE3), vector pRSETa
# T3 sequence (Q14541 102-408): T2 sequence (Q14541 102-408)
# Method: The description of the bound ligand from the structural data led to the belief that the compound was a fatty acid. Analytical methods were used to obtain a definitive identification of the ligand. First, bound ligand(s) was separated from a purified preparation of HNF4γ LBD by liquid-liquid extraction (Folch et al., (1957) J. Biol. Chem. 226: 497-509). The extract was then treated with 3% (v/v) acetyl chloride in methanol. This reagent converts fatty acids to their corresponding fatty acid methyl esters (FAME). The derivatized sample was then analyzed by gas chromatography/mass spectrometry (GC/MS) using both electron impact ionization (EI) and chemical ionization (CI) in separate analyses. The constituents of the extract were identified by comparing the GC/MS data for the extract with data for standard fatty acids, acquired likewise.
# The CI mass spectra for peaks a through g all show a protonated molecular ion ([M+H]^+) along with a fragment ion at a mass-to-charge (m/z) value 32 Da below the protonated molecular ion. […]
# The second column lists the protonated molecular ion detected of each labeled peak in FIG. 4. […]
# Lipids were extracted from an aliquot of HNF4γ LBD with chloroform/methanol 2:1 (v/v). […] The derivatized sample was then analyzed by GC/MS on a Shimadzu GC-17A QP-5050A instrument. […]
# HNF4α = target: T4, HNF4α (Homo sapiens, UniProt P41235); assay: GC/MS analyses of receptor extracts, HNF4α; assay type: binding
# T4 sequence (P41235 1-474): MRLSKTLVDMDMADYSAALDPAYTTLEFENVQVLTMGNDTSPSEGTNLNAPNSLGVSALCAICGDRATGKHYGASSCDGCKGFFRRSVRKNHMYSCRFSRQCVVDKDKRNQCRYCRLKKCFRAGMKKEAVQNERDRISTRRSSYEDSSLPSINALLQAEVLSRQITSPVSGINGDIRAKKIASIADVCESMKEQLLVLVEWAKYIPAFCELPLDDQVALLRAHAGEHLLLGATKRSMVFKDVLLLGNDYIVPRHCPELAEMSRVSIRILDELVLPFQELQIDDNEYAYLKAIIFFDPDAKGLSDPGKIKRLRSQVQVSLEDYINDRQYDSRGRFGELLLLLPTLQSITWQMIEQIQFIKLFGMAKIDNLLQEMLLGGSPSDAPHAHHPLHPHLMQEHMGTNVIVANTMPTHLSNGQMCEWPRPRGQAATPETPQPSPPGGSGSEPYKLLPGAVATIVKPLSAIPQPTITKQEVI
# Text: Palmitic acid forms hydrogen bonds with the side chain of arginine 186, and with the backbone nitrogen of glycine 197 (not shown). Alanine 215 corresponds to serine 256 in HNF4α. Because serine can form hydrogen bonds to the ligand, the specificity is different for the two receptor subtypes. […] Valine 214 corresponds to valine 255 in HNF4α, and is one of the mutations associated with MODY, Type 1.
Compound,Kd [1],effect on CBP recruitment / association between HNF4 and CBP [1],Kd [2],effect on CBP recruitment / association between HNF4 and CBP [2],fatty acid found in HNF4γ extract by GC/MS (HNF4γ LBD),binding to HNF4α by GC/MS of receptor extracts (HNF4α)
CCCCCCCCCCCCCCCC(=O)O [palmitic acid],1000 nM,functional activators; also recorded: increased,1000 nM,functional activators; also recorded: increased,most abundant component,binds
CCCCCCCCCCCCCCCC(=O)SCCNC(=O)CCNC(=O)[C@H](O)C(C)(C)COP(=O)(O)OP(=O)(O)OC[C@H]1O[C@@H](n2cnc3c(N)ncnc32)[C@H](O)[C@@H]1OP(=O)(O)O [palmitoyl-CoA],,decreased the basal level,,decreased the basal level,,
CCCCCCCCCCCCCCCCCC(=O)O [stearic acid],1000 nM,functional activators; also recorded: increased,1000 nM,functional activators; also recorded: increased,,binds
CCCCCCCCCCCCCCCCCC(=O)SCCNC(=O)CCNC(=O)[C@H](O)C(C)(C)COP(=O)(O)OP(=O)(O)OC[C@H]1O[C@@H](n2cnc3c(N)ncnc32)[C@H](O)[C@@H]1OP(=O)(O)O [steroyl-CoA],,decreased the basal level,,decreased the basal level,,
